{"source": "ChEMBL document CHEMBL4043085", "about": "“Anisucoumaramide, a Bioactive Coumarin from Clausena anisum-olens” (J Nat Prod, 2017)", "key": {"[1]": {"biological_target": "T1, Amine oxidase [flavin-containing] A (Homo sapiens, UniProt P21397)", "T1 sequence (P21397 whole entry)": "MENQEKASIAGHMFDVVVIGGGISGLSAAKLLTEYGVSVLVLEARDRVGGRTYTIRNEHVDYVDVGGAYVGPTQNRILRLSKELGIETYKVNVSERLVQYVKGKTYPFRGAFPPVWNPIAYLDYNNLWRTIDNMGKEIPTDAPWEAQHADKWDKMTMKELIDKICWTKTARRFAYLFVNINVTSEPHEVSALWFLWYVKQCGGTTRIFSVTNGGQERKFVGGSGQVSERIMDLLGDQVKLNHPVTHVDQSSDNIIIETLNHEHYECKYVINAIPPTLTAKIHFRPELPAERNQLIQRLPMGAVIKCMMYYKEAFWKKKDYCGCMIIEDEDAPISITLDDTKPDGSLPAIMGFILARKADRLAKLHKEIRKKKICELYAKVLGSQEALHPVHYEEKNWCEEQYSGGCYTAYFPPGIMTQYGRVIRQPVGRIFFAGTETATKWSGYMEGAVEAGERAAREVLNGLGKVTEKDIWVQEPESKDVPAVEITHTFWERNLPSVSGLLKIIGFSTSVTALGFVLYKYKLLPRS", "assay": "Inhibition of human recombinant MAOA assessed as reduction in H2O2 production from p-tyramine at 100 uM incubated for 15 mins by Amplex red reagent based fluorimetric method", "details": "0.25 h; call rule not given here"}, "[2]": {"biological_target": "T2, Amine oxidase [flavin-containing] B (Homo sapiens, UniProt P27338)", "T2 sequence (P27338 whole entry)": "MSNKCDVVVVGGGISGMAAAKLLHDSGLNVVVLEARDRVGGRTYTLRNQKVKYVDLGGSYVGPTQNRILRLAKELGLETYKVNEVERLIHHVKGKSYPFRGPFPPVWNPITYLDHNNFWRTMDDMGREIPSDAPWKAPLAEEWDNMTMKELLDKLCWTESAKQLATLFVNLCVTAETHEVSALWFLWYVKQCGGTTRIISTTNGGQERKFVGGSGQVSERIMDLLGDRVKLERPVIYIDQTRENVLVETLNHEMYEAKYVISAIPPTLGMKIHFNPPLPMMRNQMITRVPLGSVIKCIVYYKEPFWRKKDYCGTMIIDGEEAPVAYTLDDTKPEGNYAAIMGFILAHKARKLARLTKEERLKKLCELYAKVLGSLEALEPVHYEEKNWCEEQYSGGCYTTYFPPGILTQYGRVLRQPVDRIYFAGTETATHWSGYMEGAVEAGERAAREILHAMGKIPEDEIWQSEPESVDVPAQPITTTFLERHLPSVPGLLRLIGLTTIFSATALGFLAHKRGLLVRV", "assay": "Inhibition of human recombinant MAOB assessed as reduction in H2O2 production from p-tyramine incubated for 15 mins by Amplex red reagent based fluorimetric method"}, "[3]": {"species": "Homo sapiens", "assay": "Selectivity index, ratio of IC50 for human recombinant MAOA to IC50 for human recombinant MAOB"}}, "data": [{"smiles": "COc1c(OC/C=C(\\C)C[C@@H]2C=C(CCC(N)=O)C(=O)O2)ccc2ccc(=O)oc12", "values": [{"measurement": "inhibition (INH)", "setting": "[1]", "value": "Not Active"}, {"measurement": "IC50", "setting": "[2]", "value": 144, "unit": "nM"}, {"measurement": "Ratio IC50", "setting": "[3]", "value": "> 696"}]}]}
